Assay results: patent US7399639B2, “Sensors, and methods of making and using the same” (Massachusetts Institute of Technology, priority 2003, dated 2008)
Several values for one entry are separate records, joined by “and”; a condition that tells them apart may be missing. Equal values may be shown once. Read-outs that look alike come from different tables or passages of the source.

Tests used:
[1] = Extinction coefficients / absorption spectra in HEPES buffer; type: physicochemical; conditions: for λmax (Abs, nm): HEPES 50 mM, pH 7.5, KCl 100 mM
Procedure: (§1) The above results were obtained using the following experimental methods. For all fluorescence experiments, the glassware was washed sequentially with 20% HNO3, deionized water, and ethanol before use. Purified water (resistivity […]) was obtained from a Millipore Milli-Q water purification system. Fluorophore stock solutions in DMSO were made up to concentrations of 1 mM and kept at 4° C. in 100-500 μL aliquots. Portions were thawed and diluted to the required concentrations immediately prior to each experiment. Fluorescence and absorption data were acquired in HEPES buffer (50 mM, pH 7.5, KCl 100 mM) except where otherwise noted. Solutions were transferred to clean, dry propylene containers for storage, and filtered through 0.25 μm syringe filters before data acquisition. Fluorescence spectra were measured from 475 nm to 650 nm. All measurements were performed in triplicate.
Extinction Coefficients. A 2 mL portion of HEPES buffer was titrated with 2 μL aliquots of 1 mM fluorophore stock solution and the absorption measured at each concentration. The absorbance at the maximum was plotted as a function of concentration, and the slope was taken as the extinction coefficient. The procedure was repeated using 1.9 mL portions of HEPES buffer containing 100 μL aliquots of 10 mM ZnCl2 solution.

[2] = Quantum yields / fluorescence emission against fluorescein standard; type: physicochemical; conditions: for λmax (Em, nm): HEPES 50 mM, pH 7.5, KCl 100 mM; for Φ: fluorescein standard
Procedure: as §1
Quantum Yields. Quantum yields were calculated by recording UV-vis spectra of the fluorophore under study and a 1 μM fluorescein standard in 0.1 N NaOH to determine the wavelength where sample and fluorescein absorption were equal. The fluorescence spectrum of each was then recorded, exciting at the wavelength determined by uv-vis spectra comparison. The integrated emission of the sample was normalized to the fluorescein standard and multiplied by the standard quantum yield of 0.95. Brannon, J. H.; Magde, D. J. Phys. Chem. 1978, 82, 705-709.

HeLa cells = assay: Cell permeability studies using Zn-pyrithione, fluorescence microscopy; type: cell-based; conditions: 5 μM ligand 30 min RT, 10 μM Zn^2+-pyrithione
Procedure: FIG. 10 depicts phase contrast (A) and fluorescence microscopy (B) visualization of HeLa cells treated with the ligands of Formula 101, 103, and 31 in the absence of zinc. Cells were bathed in 5 μM ligand for 30 min at RT, followed by untreated PBS for 10 min.
FIG. 11 depicts phase contrast (A) and fluorescence microscopy (B) visualization of HeLa cells treated with the ligands of Formula 101, 103, and 31 in the presence of zinc. Cells were bathed in 5 μM ligand for 30 min at RT, followed by 10 μM Zn^2+-pyrithione.
FIG. 12 depicts phase contrast (A) and fluorescence microscopy (B) visualization of HeLa cells treated with the ligands of Formula 100, 102, and 31 in the absence of zinc. Cells were bathed in 5 μM ligand for 30 min at RT, followed by untreated PBS for 10 min.
FIG. 13 depicts phase contrast (A) and fluorescence microscopy (B) visualization of HeLa cells treated with the ligands of Formula 100, 102, and 31 in the presence of zinc. Cells were bathed in 5 μM sensor for 30 min at RT, followed by 10 μM Zn^2+-pyrithione.

[3] = reported elsewhere; cited from earlier work
[4] = metal-free; reported elsewhere; cited from earlier work
[5] = Zn(II) binding studies (fluorescence spectroscopy), dual-metal buffering system, Zinpyr dyes; conditions: titration with dual-metal buffering system, 0.17 nM to 25 nM free Zn(II)
Procedure: General Spectroscopic Methods. PIPES (piperazine-N,N′-bis(2-ethanesulfonic acid) from Calbiochem, KCl (99.997%), and ZnCl2 (99.999%) are purchased and used as received. All experiments for this Example Eight, with the exception of the pKa experiment, are conducted under stimulated physiological conditions using 50 mM PIPES, 100 mM KCl adjusted to pH 7 via drop-wise addition of KOH. Millipore water is used for all aqueous solutions, which are filtered through a 0.2 μm cellulose filter prior to use (buffered dye solutions should not be put through the filters because the dyes will get stuck). An Orion glass electrode, which is calibrated prior to each use, is used to determine solution pH. The accuracy of each micropipette is verified prior to use. Zinc solutions are prepared from 100 mM and 10 mM stock solutions in water (pH 5). […] The equivalence point at 321 nm and at 291 nm is determined and used to calculate the Zn(II) concentration. […]
Zn(II) Binding Studies (Fluorescence Spectroscopy). The dissociation constants, Kd, for Zn(II) binding were determined using a dual-metal buffering system, which affords concentrations of free Zn(II) in the nM range. […] The response was quantified by integrating the emission intensity from 505-650 nm and normalizing. […]
The binding affinities for Zinpyr-5 and Zinpyr-6 were determined using the dual-metal buffering system previously described. […]

[6] = Quantum yield and emission measurements of Zinpyr dyes; type: physicochemical
Procedure: (§2) General Spectroscopic Methods. PIPES (piperazine-N,N′-bis(2-ethanesulfonic acid) from Calbiochem, KCl (99.997%), and ZnCl2 (99.999%) are purchased and used as received. All experiments for this Example Eight, with the exception of the pKa experiment, are conducted under stimulated physiological conditions using 50 mM PIPES, 100 mM KCl adjusted to pH 7 via drop-wise addition of KOH. Millipore water is used for all aqueous solutions, which are filtered through a 0.2 μm cellulose filter prior to use (buffered dye solutions should not be put through the filters because the dyes will get stuck). An Orion glass electrode, which is calibrated prior to each use, is used to determine solution pH. The accuracy of each micropipette is verified prior to use. Zinc solutions are prepared from 100 mM and 10 mM stock solutions in water (pH 5). The concentrations of the stock solutions is verified by spectrophotometric titration with 2,2′:6′,2″-terpyridine, which is was performed a minimum of three times per solution. In a typical titration, 0.5 μL aliquots of a 10 mM (nominal) Zn(II) solution in water is added to a 10 μM solution of terpyridine in 50 mM PIPES, 100 mM KCl, pH 7 prepared from a 100 mM stock solution in DMSO. The equivalence point at 321 nm and at 291 nm is determined and used to calculate the Zn(II) concentration. Stock solutions of Zinpyr-5 (0.76 mM) and Zinpyr-6 (0.41 mM) in DMSO are prepared, stored at −25° C., and thawed in the dark immediately prior to use. All spectral data are manipulated with the KaleidaGraph software package.
Fluorescence Spectroscopy. Emission spectra are obtained using a Hitachi F-3010 spectrofluorimeter linked to a Pentium PC running the SpectraCalc software package. A 150 W Xe lamp (Ushio Inc.) operating at a current of 5 A provides the excitation. A rhodamine quantum counter is used to normalize the spectra for excitation intensity, and manufacturer-supplied correction curves are used to normalize the emission spectra. Manufacturer supplied photomultiplier curves are used to correct for emission intensity. A circulating water bath is used during all experiments to regulate the temperature at 25.0° C.±0.1° C. All spectra are obtained using 3 nm slit widths and a 240 nm/min scan speed, and all samples are contained in a 1 cm×1 cm quartz cuvette with a 3.5 mL volume. All measurements are made in triplicate, with the exception of the Zinpyr-6 pKa titration, and on different days to assure the authenticity of the results.
Quantum Yield Measurements. The quantum yields of Zinpyr-5 and Zinpyr-6 are determined using a solution of fluorescein in 0.1 N NaOH (φ=0.95) as a reference. In a typical experiment, a 6 mL solution of 1 μM Zinpyr is prepared. For metal-free studies, 6 μL of 100 mM K4EDTA is added to chelate any adventitious metal ions. To determine the quantum efficiencies of the metal-bound dyes, either 2 μL (Zinpyr-5) or 6 μL (Zinpyr-6) of a 100 mM ZnCl2 stock solution is added to a 1 μM Zinpyr solution. The concentration of the reference solution is adjusted to match the excitation spectra of the Zinpyr dye, and the appropriate excitation wavelength is determined from where the reference and probe excitation spectra intersect. Excitation is provided at 497 nm (Zinpyr-5 and Zinpyr-6, metal-free), 491 nm (Zinpyr-5, metal-bound), or 493 (Zinpyr-6, metal-bound). Emission spectra are integrated from 450-650 nm and the quantum yields were calculated using the standard equation. Godwin, H. A.; Berg, J. M. J. Am. Chem. Soc. 1996, 118, 6514-6515.

[7] = Protonation constants that affect fluorescence of Zinpyr dyes; type: physicochemical; conditions: for pKa: aqueous solution of 100 mM KCl, 10 mM KOH, Zinpyr-6 value estimated from preliminary results
Procedure: Studies of Protonation Constants that Effect Fluorescence. The apparent protonation constants that affect fluorescence are determined by plotting the integrated emission intensity versus pH from ˜12.5 to 2. In a typical experiment, a 30 mL solution of 1 μM Zinpyr in 100 mM KCl, 10 mM KOH is adjusted to pH 12.5 by drop-wise addition of KOH. Aliquots of 6 N, 2 N, 1 N, 0.5 N, 0.5 N, 0.1 N, and 0.01 N HCl are added to achieve pH changes of approximately […], and the emission spectrum is gathered at each interval. The overall volume change for each experiment is monitored so as not to exceed ˜3%. Excitation is provided at 498 nm for Zinpyr-5 and at 500 nm for Zinpyr-6. Data is integrated from 505 nm to 650 nm, normalized and plotted against pH. The data were fit to the non-linear expression previously described. Godwin, H. A.; Berg, J. M. J. Am. Chem. Soc. 1996, 118, 6514-6515.

[8] = Metal ion selectivity measurements of Zinpyr dyes; conditions: 1 μM Zinpyr, divalent first-row transition metals and Cd(II)
Procedure: Metal Ion Selectivity Measurements. The metal ion selectivity of Zinpyr-5 and Zinpyr-6 for a number of divalent first-row transition metals, in addition to cadmium, is investigated using fluorescence spectroscopy. Aqueous metal ion solutions for Ca(II), Mg(II), Mn(II), Co(II), Ni(II) and Cd(II) are prepared from the chloride salts and Millipore water. The Cu(II) solution are prepared from copper sulfate and Fe(II) solutions are prepared immediately before use with ferrous ammonium sulfate and Millipore water that was thoroughly purged with Ar. In a typical experiment, 15 μL of a ˜10 mM metal solution is added to a 1 μM Zinpyr solution (3 mL) and the emission spectra is recorded with excitation at 498 nm (Zinpyr-5) or 500 nm (Zinpyr-6). […] of 10 mM ZnCl2 is then added and the emission spectra is obtained. The spectra are integrated from 505-650 nm (Zinpyr-5) or 450-650 nm (Zinpyr-6) and normalized.

[9] = UV-visible spectroscopy of Zinpyr dyes (excitation maxima, molar absorptivity); type: physicochemical; conditions: for ε: at excitation maximum
Procedure: as §2
UV-Visible Spectroscopy. Excitation spectra are obtained using a Cary IE scanning spectrophotometer controlled by a Pentium PC running the manufacturer supplied software program. A circulating water bath is used during all acquisitions to maintain the temperature at 25.0° C.±0.1° C. All data are collected using a 600 nm/min scan speed and a 1 nm data interval. […] Molar absorptivity values are determined from a minimum of three titrations over a concentration range of 10 μM to 1 μM. […]

[10] = Affinity of compound 30 for Zn2+; type: binding
[11] = metal-free, 50 mM PIPES, 100 mM KCl, pH 7

O=C(O)c1ccc2c(c1)C(=O)OC21c2cc(Cl)c(O)c(CN(Cc3ccccn3)Cc3ccccn3)c2Oc2c1cc(Cl)c(O)c2CN(Cc1ccccn1)Cc1ccccn1 [Formula 101]
εmax ([1]; +Zn^2+ complex): 88000 M⁻¹ cm⁻¹ | λmax (Abs, nm) ([1]; +Zn^2+ complex): 509 nm | εmax ([1]; free ligand): 81000 M⁻¹ cm⁻¹ | λmax (Abs, nm) ([1]; free ligand): 520 nm | Brightness ([2]; +Zn^2+ complex): 5.5 × 10^4 | λmax (Em, nm) ([2]; +Zn^2+ complex): 532 nm | Φ ([2]; +Zn^2+ complex): 0.62 | Brightness ([2]; free ligand): 1.4 × 10^4 | λmax (Em, nm) ([2]; free ligand): 536 nm | Φ ([2]; free ligand): 0.17 | uptake into cells (HeLa cells): not taken up by the cell

COc1ccc(NCc2c(O)ccc3c(-c4ccccc4C(=O)O)c4cc(Cl)c(=O)cc-4oc23)c(CN(Cc2ccccn2)Cc2ccccn2)c1 [Zinpyr-3]
fluorescence change upon addition of Zn(II) [3]: negligible | quantum efficiency [4]: 0.04

O=C(O)c1ccccc1-c1c2cc(Cl)c(=O)cc-2oc2c(CNc3ccc(Cl)cc3CN(Cc3ccccn3)Cc3ccccn3)c(O)ccc12 [Zinpyr-6]
increase in integrated emission [5]: 2.5- to 3 fold and ~3 fold | increase in brightness upon Zn(II) coordination [6]: 3.8 fold and 3.7 fold | increase in quantum efficiency upon addition of excess Zn(II) [6]: 3.4 fold | brightness (φ×ε) ([6]; Zn(II) bound): 33,000 M^−1 cm^−1 | emission maximum ([6]; Zn(II) bound): 515 nm | quantum efficiency ([6]; Zn(II) bound): 0.34 | brightness (φ×ε) ([6]; metal-free): 8,900 M^−1 cm^−1 | emission maximum [6, 11]: 519 nm | quantum efficiency [6, 11]: 0.10 | pH at which maximum emission is reached ([7]; Zinpyr-6 data preliminary): ~5 | pKa ([7]; read-out: apparent pKa, first protonation event (fluorescence enhancement; tertiary amine)): ~10 | pKa ([7]; read-out: apparent pKa, second protonation event (fluorescence enhancement; aniline nitrogen)): ~6.4 | pKa ([7]; read-out: apparent pKa, third protonation event (fluorescence quenching)): ~4.6 | metal ion selectivity [8]: Zn(II) and Cd(II) selective | excitation maximum ([9]; Zn(II) bound): 495 nm | ε ([9]; Zn(II) bound): 98,000 M^−1 cm^−1 | ε ([9]; metal-free): 88,600 M^−1 cm^−1

O=C(O)c1ccccc1-c1c2cc(Cl)c(=O)cc-2oc2cc(N(Cc3ccccn3)Cc3ccccn3)ccc12 [compound 30, 9-(o-Carboxyphenyl)-2-chloro-6-[bis(2-pyridylmethyl)amino]-3-xanthanone]
affinity for Zn^2+ [10]: weak
